One block for each compound: values may come before it.
Columns and labels:
F508del-CFTR = target: T1, F508del-CFTR (Homo sapiens, UniProt P13569, DEL508-508); assay: Membrane potential optical (FLIPR) assay for F508del-CFTR modulators in NIH 3T3 cells; format: cell-based; settings: NIH 3T3 cells expressing F508del; assay A1; read-out: CFTRdF508 Cor 3T3 FLIPR 384 CFTRdF508 MP 3T3 770 EC50
T1 construct: expressed in transfected cells
Method in brief: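 NIH3T3 mouse fibroblasts stably expressing F508del, seeded on matrigel and cultured 18-24 h at 37 °C; for correction, cells were cultured with or without compound for 18-24 h. Cells were loaded with voltage-sensing dye, then compound was added in one step with a chloride gradient (chloride replaced by gluconate). Membrane potential was read by fluorescence.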

human PXR = target: T2, human PXR (Homo sapiens, UniProt O75469); assay: PXR assay: PXR mediated CYP3A4 induction in DPX-2 cell line; format: cell-based; settings: DPX-2 cells
T2 construct: host or cells: DPX-2 cell line (derived from HepG2)
T2 sequence (O75469 1-434): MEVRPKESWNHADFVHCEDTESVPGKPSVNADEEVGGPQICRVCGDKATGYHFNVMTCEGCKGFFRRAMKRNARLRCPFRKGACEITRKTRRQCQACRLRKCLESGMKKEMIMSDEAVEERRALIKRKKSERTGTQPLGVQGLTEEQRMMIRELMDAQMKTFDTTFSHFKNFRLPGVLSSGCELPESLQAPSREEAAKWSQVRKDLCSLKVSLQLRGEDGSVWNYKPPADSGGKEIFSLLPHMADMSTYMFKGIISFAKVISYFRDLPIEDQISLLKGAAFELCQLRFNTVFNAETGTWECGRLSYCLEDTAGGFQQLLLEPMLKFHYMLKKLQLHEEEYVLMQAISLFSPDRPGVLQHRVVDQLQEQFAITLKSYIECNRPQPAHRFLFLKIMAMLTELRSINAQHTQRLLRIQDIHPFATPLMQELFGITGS
Method in brief: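 HepG2-derived DPX-2 cells stably carrying human PXR and a CYP3A4 promoter/enhancer–luciferase reporter; 11 doses from 0.1 to 60 μM for 48 h, rifampicin as positive control. Viability read by fluorescence, then luciferase luminescence; max fold induction over vehicle and EC50 reported.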

[1] = MDCK-Wild Type permeability, 96 well + 0.1% BSA; format: in vitro ADME; settings: dog, MDCK, A-B direction, read-out: MDCK-Wild Type-Permeability 96 well + 0.1% BSA Papp compound (A-B)
Rat hepatocytes = assay: Hepatocyte clearance, rat hepatocytes; format: in vitro ADME; settings: percent unchanged
Rat IV and PO PK studies = format: in vivo, male Sprague-Dawley rats; settings: for RAT PLASMA-RAW IV-bolus CL_drg: nominal 3.0 mg/kg; for RAT PLASMA-RAW PO % F_drg / AUC(0-inf): nominal 3 mg/kg, PO; for AUC(0-inf): male, Sprague-Dawley, plasma, read-out: RAT PLASMA-RAW PO AUC (0-inf)_drg
Method: C. Experimental Protocol for Rat IV and PO PK Studies
The tested compound was administered to male Sprague-Dawley rats as a single nominal intravenous dose of 3.0 mg/kg as a solution in 10% NMP, 10% solution, 15% EtOH, 35% PEG400 and 30% D5W. The tested compound was also administered to male Sprague-Dawley rats at single nominal oral dose of 3 mg/kg as a solution in 5% NMP, 30% PEG400, 10% TPGS, 5% PVP-K30 at 5 mL/kg dose volume. Analyses of plasma and dose preparations were performed using LC/MS/MS.
Plasma concentration-time profiles of the tested compound in Sprague-Dawley rats at scheduled (nominal) sampling times were analyzed by noncompartmental pharmacokinetic methods using PK function within Watson LIMS software, Version 7.4.2 (Thermo Scientific Inc, Waltham, Mass.). AUC values were calculated using the linear trapezoidal rule.

[2] = Metabolism of Compound 1 in vitro and in vivo

T1 sequence (P13569 with tags, fused parts or gaps DEL508-508): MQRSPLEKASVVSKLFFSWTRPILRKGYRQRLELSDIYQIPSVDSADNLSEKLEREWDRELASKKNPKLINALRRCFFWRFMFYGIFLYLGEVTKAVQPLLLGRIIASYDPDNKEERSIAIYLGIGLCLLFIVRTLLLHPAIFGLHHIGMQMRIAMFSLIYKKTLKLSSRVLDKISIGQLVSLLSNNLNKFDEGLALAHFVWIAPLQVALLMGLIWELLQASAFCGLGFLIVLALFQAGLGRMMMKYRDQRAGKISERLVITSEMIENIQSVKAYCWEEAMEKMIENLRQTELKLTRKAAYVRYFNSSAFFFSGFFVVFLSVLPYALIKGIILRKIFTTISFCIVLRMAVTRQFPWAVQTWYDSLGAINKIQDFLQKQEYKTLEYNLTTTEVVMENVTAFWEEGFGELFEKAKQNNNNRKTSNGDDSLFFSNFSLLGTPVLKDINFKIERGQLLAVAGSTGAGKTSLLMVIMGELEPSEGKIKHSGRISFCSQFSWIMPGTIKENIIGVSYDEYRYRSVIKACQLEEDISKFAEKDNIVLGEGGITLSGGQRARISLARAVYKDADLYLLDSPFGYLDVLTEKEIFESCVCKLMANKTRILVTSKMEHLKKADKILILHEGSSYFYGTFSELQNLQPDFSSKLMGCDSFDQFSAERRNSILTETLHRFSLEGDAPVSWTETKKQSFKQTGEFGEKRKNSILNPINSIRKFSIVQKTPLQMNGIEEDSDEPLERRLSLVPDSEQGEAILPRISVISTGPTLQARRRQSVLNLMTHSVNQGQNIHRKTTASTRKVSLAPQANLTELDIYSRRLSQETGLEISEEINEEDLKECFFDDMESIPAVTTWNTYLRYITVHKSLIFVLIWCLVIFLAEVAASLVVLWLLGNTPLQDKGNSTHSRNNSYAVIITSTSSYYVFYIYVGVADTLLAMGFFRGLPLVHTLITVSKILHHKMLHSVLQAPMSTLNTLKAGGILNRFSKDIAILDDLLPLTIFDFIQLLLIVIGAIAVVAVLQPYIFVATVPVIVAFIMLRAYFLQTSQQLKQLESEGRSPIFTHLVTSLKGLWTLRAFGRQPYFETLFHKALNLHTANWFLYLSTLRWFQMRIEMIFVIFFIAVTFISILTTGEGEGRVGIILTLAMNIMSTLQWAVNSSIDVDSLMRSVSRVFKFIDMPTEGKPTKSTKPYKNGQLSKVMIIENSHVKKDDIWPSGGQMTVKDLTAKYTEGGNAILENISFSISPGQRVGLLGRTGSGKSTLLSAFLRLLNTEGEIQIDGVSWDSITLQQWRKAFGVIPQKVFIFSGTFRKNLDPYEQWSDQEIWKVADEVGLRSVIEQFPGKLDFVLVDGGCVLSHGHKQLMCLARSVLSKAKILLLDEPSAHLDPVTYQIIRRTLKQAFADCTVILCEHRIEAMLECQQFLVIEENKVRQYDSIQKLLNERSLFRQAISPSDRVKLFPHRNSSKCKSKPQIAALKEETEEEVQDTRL

SMILES: Cc1c(S(=O)(=O)NC(=O)c2ccc(-n3ccc(OCCC4(C(F)(F)F)CC4)n3)nc2N2C[C@@H](C)CC2(C)C)cnn1C [Compound 14, N-(1,5-dimethylpyrazol-4-yl)sulfonyl-6-[3-[2-[1-(trifluoromethyl)cyclopropyl]ethoxy]pyrazol-1-yl]-2-[(4S)-2,2,4-trimethylpyrrolidin-1-yl]pyridine-3-carboxamide]
EC50 (F508del-CFTR): 280 nM
CYP3A4 Induction-PXR human PXR internal Max % Activity (human PXR): 2%
Papp A→B [1]: 2.8 ×10⁻⁶ cm/s
Hepatocyte clearance-Rat Rat hepatocytes CL pct_unchanged (Rat hepatocytes): 50%
RAT PLASMA-RAW IV-bolus CL_drg (Rat IV and PO PK studies): 3.9 mL/min/kg
RAT PLASMA-RAW PO % F_drg (Rat IV and PO PK studies): 61%
AUC(0-inf) (Rat IV and PO PK studies): 10500 ng·h/mL

SMILES: Cc1nn(C)cc1S(=O)(=O)NC(=O)c1ccc(-n2ccc(OCCC3(C(F)(F)F)CC3)n2)nc1N1C[C@@H](C)CC1(C)C [Compound 15, N-(1,3-dimethylpyrazol-4-yl)sulfonyl-6-[3-[2-[1-(trifluoromethyl)cyclopropyl]ethoxy]pyrazol-1-yl]-2-[(4S)-2,2,4-trimethylpyrrolidin-1-yl]pyridine-3-carboxamide]
EC50 (F508del-CFTR): 130 nM
CYP3A4 Induction-PXR human PXR internal Max % Activity (human PXR): 3%
Papp A→B [1]: 2.7 ×10⁻⁶ cm/s
Hepatocyte clearance-Rat Rat hepatocytes CL pct_unchanged (Rat hepatocytes): 97%
RAT PLASMA-RAW IV-bolus CL_drg (Rat IV and PO PK studies): 2.5 mL/min/kg
RAT PLASMA-RAW PO % F_drg (Rat IV and PO PK studies): 66%
AUC(0-inf) (Rat IV and PO PK studies): 16300 ng·h/mL

SMILES: Cc1nn(C)cc1S(=O)(=O)NC(=O)c1ccc(-n2ccc(OCC3C(C)(C)C3(C)C)n2)nc1N1C[C@@H](C)CC1(C)C [Compound 20, N-(1,3-dimethylpyrazol-4-yl)sulfonyl-6-[3-[(2,2,3,3-tetramethylcyclopropyl)methoxy]pyrazol-1-yl]-2-[(4S)-2,2,4-trimethylpyrrolidin-1-yl]pyridine-3-carboxamide]
EC50 (F508del-CFTR): 170 nM
CYP3A4 Induction-PXR human PXR internal Max % Activity (human PXR): 4%
Papp A→B [1]: 1.4 ×10⁻⁶ cm/s
Hepatocyte clearance-Rat Rat hepatocytes CL pct_unchanged (Rat hepatocytes): 13%
RAT PLASMA-RAW IV-bolus CL_drg (Rat IV and PO PK studies): 4.9 mL/min/kg
RAT PLASMA-RAW PO % F_drg (Rat IV and PO PK studies): 21%
AUC(0-inf) (Rat IV and PO PK studies): 3000 ng·h/mL

SMILES: Cc1c(S(=O)(=O)NC(=O)c2ccc(-n3ccc(OCC4C(C)(C)C4(C)C)n3)nc2N2C[C@@H](C)CC2(C)C)cnn1C [Compound 21, N-(1,5-dimethylpyrazol-4-yl)sulfonyl-6-[3-[(2,2,3,3-tetramethylcyclopropyl)methoxy]pyrazol-1-yl]-2-[(4S)-2,2,4-trimethylpyrrolidin-1-yl]pyridine-3-carboxamide]
EC50 (F508del-CFTR): 520 nM
CYP3A4 Induction-PXR human PXR internal Max % Activity (human PXR): 1%
Papp A→B [1]: 3 ×10⁻⁶ cm/s
Hepatocyte clearance-Rat Rat hepatocytes CL pct_unchanged (Rat hepatocytes): 0%
RAT PLASMA-RAW IV-bolus CL_drg (Rat IV and PO PK studies): 6.7 mL/min/kg
RAT PLASMA-RAW PO % F_drg (Rat IV and PO PK studies): 47%
AUC(0-inf) (Rat IV and PO PK studies): 3900 ng·h/mL

SMILES: Cc1nn(C)cc1S(=O)(=O)NC(=O)c1ccc(-n2ccc(OCC3C4(CC4)C34CC4)n2)nc1N1C[C@@H](C)CC1(C)C [Compound 28, (S)—N-((1,3-Dimethyl-1H-pyrazol-4-yl)sulfonyl)-6-(3-(dispiro[2.0.2.1]heptan-7-ylmethoxy)-1H-pyrazol-1-yl)-2-(2,2,4-trimethylpyrrolidin-1-yl)nicotinamide]
EC50 (F508del-CFTR): 90 nM
CYP3A4 Induction-PXR human PXR internal Max % Activity (human PXR): 4%
Papp A→B [1]: 2.2 ×10⁻⁶ cm/s
Hepatocyte clearance-Rat Rat hepatocytes CL pct_unchanged (Rat hepatocytes): 41%
RAT PLASMA-RAW IV-bolus CL_drg (Rat IV and PO PK studies): 1.8 mL/min/kg
RAT PLASMA-RAW PO % F_drg (Rat IV and PO PK studies): 80%
AUC(0-inf) (Rat IV and PO PK studies): 7100 ng·h/mL

SMILES: Cc1nn(C)cc1S(=O)(=O)NC(=O)c1ccc(-n2ccc(OCC(C)(C)C(F)(F)F)n2)nc1N1CC(CO)CC1(C)C (centres unmarked) [Compound 30, N-(1,3-dimethylpyrazol-4-yl)sulfonyl-2-[4-(hydroxymethyl)-2,2-dimethyl-pyrrolidin-1-yl]-6-[3-(3,3,3-trifluoro-2,2-dimethyl-propoxy)pyrazol-1-yl]pyridine-3-carboxamide]
EC50 (F508del-CFTR): 950 nM
CYP3A4 Induction-PXR human PXR internal Max % Activity (human PXR): 4%
Papp A→B [1]: 0.6 ×10⁻⁶ cm/s
Hepatocyte clearance-Rat Rat hepatocytes CL pct_unchanged (Rat hepatocytes): 39%
metabolite identity [2]: metabolites of Compound 1

SMILES: Cc1n[nH]cc1S(=O)(=O)NC(=O)c1ccc(-n2ccc(OCC(C)(C)C(F)(F)F)n2)nc1N1C[C@@H](C)CC1(C)C [Compound 31, (S)—N-((3-methyl-1H-pyrazol-4-yl)sulfonyl)-6-(3-(3,3,3-trifluoro-2,2-dimethylpropoxy)-1H-pyrazol-1-yl)-2-(2,2,4-trimethylpyrrolidin-1-yl)nicotinamide]
EC50 (F508del-CFTR): 410 nM
CYP3A4 Induction-PXR human PXR internal Max % Activity (human PXR): 1%
Papp A→B [1]: 1.1 ×10⁻⁶ cm/s
Hepatocyte clearance-Rat Rat hepatocytes CL pct_unchanged (Rat hepatocytes): 30%
metabolite identity [2]: metabolites of Compound 1

SMILES: Cc1nn(C)cc1S(=O)(=O)N1C(=O)c2ccc(-n3ccc(OCC(C)(C)C(F)(F)F)n3)nc2N2C1[C@@H](C)CC2(C)C (some centres unmarked) [Compound 36, (75)-6-((1,3-dimethyl-1H-pyrazol-4-yl)sulfonyl)-7,9,9-trimethyl-2-(3-(3,3,3-trifluoro-2,2-dimethylpropoxy)-1H-pyrazol-1-yl)-6a,7,8,9-tetrahydropyrido[3,2-e]pyrrolo[1,2-a]pyrimidin-5(6H)-one]
metabolite identity [2]: metabolites of Compound 1

Second part, the compound after the results:

EC50 (F508del-CFTR): 460 nM
CYP3A4 Induction-PXR human PXR internal Max % Activity (human PXR): 1%
Hepatocyte clearance-Rat Rat hepatocytes CL pct_unchanged (Rat hepatocytes): 39%
metabolite identity [2]: metabolites of Compound 1
SMILES: C[C@@H]1CN(c2nc(-n3ccc(OCC(C)(C)C(F)(F)F)n3)ccc2C(=O)NS(=O)(=O)c2cn(C)nc2CO)C(C)(C)C1 [Compound 39, N-[3-(hydroxymethyl)-1-methyl-pyrazol-4-yl]sulfonyl-6-[3-(3,3,3-trifluoro-2,2-dimethyl-propoxy)pyrazol-1-yl]-2-[(4S)-2,2,4-trimethylpyrrolidin-1-yl]pyridine-3-carboxamide]

EC50 (F508del-CFTR): 560 nM
CYP3A4 Induction-PXR human PXR internal Max % Activity (human PXR): 9%
Papp A→B [1]: 1.2 ×10⁻⁶ cm/s
Hepatocyte clearance-Rat Rat hepatocytes CL pct_unchanged (Rat hepatocytes): 49%
metabolite identity [2]: metabolites of Compound 1
SMILES: Cc1nn(C)cc1S(=O)(=O)NC(=O)c1ccc(-n2ccc(OCC(C)(CO)C(F)(F)F)n2)nc1N1C[C@@H](C)CC1(C)C (stereo partly drawn) [Compound 45, N-(1,3-dimethylpyrazol-4-yl)sulfonyl-6-[3-[3,3,3-trifluoro-2-(hydroxymethyl)-2-methyl-propoxy]pyrazol-1-yl]-2-[(4S)-2,2,4-trimethylpyrrolidin-1-yl]pyridine-3-carboxamide]

EC50 (F508del-CFTR): 30000 nM
CYP3A4 Induction-PXR human PXR internal Max % Activity (human PXR): 13%
Hepatocyte clearance-Rat Rat hepatocytes CL pct_unchanged (Rat hepatocytes): 35%
metabolite identity [2]: metabolites of Compound 1
SMILES: C[C@H]1CC(C)(C)N2c3nc(-n4ccc(OCC(C)(C)C(F)(F)F)n4)ccc3C(=O)OC12 (stereo partly drawn) [Compound 57, (7S)-7,9,9-trimethyl-2-(3-(3,3,3-trifluoro-2,2-dimethylpropoxy)-1H-pyrazol-1-yl)-6a,7,8,9-tetrahydro-5H-pyrido[2,3-d]pyrrolo[2,1-b][1,3]oxazin-5-one]

Reference: US10793547B2, “Modulator of the cystic fibrosis transmembrane conductance regulator, pharmaceutical compositions, methods of treatment, and process for making the modulator” (Vertex Pharmaceuticals Incorporated, priority 2016, dated 2020)
